These results are taken from ChEMBL document CHEMBL4732127, “The discovery of a potent and selective pyrazolo-[2,3-e]-[1,2,4]-triazine cannabinoid type 2 receptor agonist” (Eur J Med Chem, 2021).

Activity calls are given as the source filed them. The rule behind the calls is not given here.

For data set [1], the target named is T1, Cannabinoid receptor 2 (Homo sapiens, UniProt P34972). The data set is described as follows: Agonist activity at human CB2 expressed in mouse AtT20 cells assessed as activation of G-protein gated inwardly rectifying K+ channels at 10 uM measured every 2 sec for 2 mins by FLIPR membrane potential assay relative to control. Type of data set: cell-based. Conditions: filed as agonist.

For data set [2], the target named is T2, Cannabinoid receptor 1 (Homo sapiens, UniProt P21554). The data set is described as follows: Agonist activity at human CB1 expressed in mouse AtT20 cells assessed as activation of G-protein gated inwardly rectifying K+ channels at 10 uM measured every 2 sec for 2 mins by FLIPR membrane potential assay. Type of data set: cell-based. Conditions: att20, 2 min.

Data set [3] concerns the target T1, Cannabinoid receptor 2. Nature of the data set: Agonist activity at human CB2 expressed in mouse AtT20 cells assessed as activation of G-protein gated inwardly rectifying K+ channels measured every 2 sec for 2 mins by FLIPR membrane potential assay. The class given is cell-based.
For data set [4], the target named is T1, Cannabinoid receptor 2. The data set is described as follows: Agonist activity at human CB2 expressed in mouse AtT20 cells assessed as maximal activation of G-protein gated inwardly rectifying K+ channels measured every 2 sec for 2 mins by FLIPR membrane potential assay relative to control. Type of data set: cell-based. Conditions: filed as agonist.
Data set [5] addresses T1, Cannabinoid receptor 2. Nature of the data set: Agonist activity at human CB2 expressed in mouse AtT20 cells assessed as activation of G-protein gated inwardly rectifying K+ channels at 10 uM measured every 2 sec for 2 mins by FLIPR membrane potential assay. Type of data set: cell-based.
Data set [6] concerns the target T2, Cannabinoid receptor 1. The data set is described as follows: Displacement of [3H]-CP55940 from human CB1 expressed in CHO cell membrane incubated for 3 hrs by microbeta scintillation counting method. Type of data set: cell membranes.
Data set [7] deals with T1, Cannabinoid receptor 2. Nature of the data set: Displacement of [3H]-CP55940 from human CB2 expressed in CHO cell membrane incubated for 3 hrs by microbeta scintillation counting method. The class given is cell membranes.
Data set [8] has as its target T2, Cannabinoid receptor 1. Nature of the data set: Agonist activity at CB1 (unknown origin).
Data set [9] has as its target T1, Cannabinoid receptor 2. Nature of the data set: Agonist activity at CB2 (unknown origin).

T2 sequence (P21554 whole entry): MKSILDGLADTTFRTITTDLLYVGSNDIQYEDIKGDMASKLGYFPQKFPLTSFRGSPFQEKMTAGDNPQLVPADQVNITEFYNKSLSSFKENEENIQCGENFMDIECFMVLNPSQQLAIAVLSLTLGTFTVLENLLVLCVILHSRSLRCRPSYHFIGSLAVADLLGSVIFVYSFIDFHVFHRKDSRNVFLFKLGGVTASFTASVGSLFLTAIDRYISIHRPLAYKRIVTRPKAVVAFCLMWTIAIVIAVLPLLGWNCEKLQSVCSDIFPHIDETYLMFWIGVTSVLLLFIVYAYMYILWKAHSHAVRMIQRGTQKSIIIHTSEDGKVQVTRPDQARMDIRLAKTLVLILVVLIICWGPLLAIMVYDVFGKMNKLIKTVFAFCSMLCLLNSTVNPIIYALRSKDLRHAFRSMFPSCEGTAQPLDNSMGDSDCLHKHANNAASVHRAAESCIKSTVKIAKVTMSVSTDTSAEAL
T1 sequence (P34972 whole entry): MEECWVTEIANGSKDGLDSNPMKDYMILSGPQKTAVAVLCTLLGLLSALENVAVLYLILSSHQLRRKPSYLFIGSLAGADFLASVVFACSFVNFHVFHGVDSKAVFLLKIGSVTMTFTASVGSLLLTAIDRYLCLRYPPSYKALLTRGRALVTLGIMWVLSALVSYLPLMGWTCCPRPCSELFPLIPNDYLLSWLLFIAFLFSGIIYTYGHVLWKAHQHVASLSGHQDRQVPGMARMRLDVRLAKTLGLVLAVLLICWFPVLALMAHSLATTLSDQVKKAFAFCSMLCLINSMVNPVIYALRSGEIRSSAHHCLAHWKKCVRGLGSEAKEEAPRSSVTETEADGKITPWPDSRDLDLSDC

As to `CC(C)(O)COc1ccc(C(F)(F)F)cc1C(=S)Nc1cc(C(C)(C)C)nn1C[C@H]1CCCO1`, the Activity at Cannabinoid receptor 2 [1] is 51%; on Cannabinoid receptor 1 [2], less than 50%.
As a reminder, the Emax is the size of the effect at its maximum, as opposed to the concentration needed. On to `CC(C)(O)COc1ccc(C(F)(F)F)cc1-c1ncc2c(C(C)(C)C)nn(C[C@H]3CCCO3)c2n1`, for which the EC50 on Cannabinoid receptor 2 [3] (read-out: EC50) is 41 nM. For the same molecule, the Emax at Cannabinoid receptor 2 [4] turned out to be 106%. In addition, the Activity at Cannabinoid receptor 1 [2] is on record as less than 50%.
For the molecule `CC(C)(O)COc1ccc(C(F)(F)F)cc1/C=C/c1cc(C(C)(C)C)nn1C[C@H]1CCCO1`, the values for the Activity on Cannabinoid receptor 2 [1] and at Cannabinoid receptor 1 [2] were 54% and less than 50%, respectively.
In the same order, the values of `CC(C)(O)COc1ccc(C(F)(F)F)cc1C#Cc1cc(C(C)(C)C)nn1C[C@H]1CCCO1` are 62% and less than 50%.
Turning to `CN(C(=O)c1cc(C(F)(F)F)ccc1OCC(C)(C)O)c1cc(C(C)(C)C)nn1C[C@H]1CCCO1`, the pEC50 result at Cannabinoid receptor 2 [3] was “inactive”. Further, the Activity on Cannabinoid receptor 1 [2] and on Cannabinoid receptor 2 [5] was less than 50% throughout.
As for `CC(C)(O)COc1ccc(C(F)(F)F)cc1Nc1cc(C(C)(C)C)nn1C[C@H]1CCCO1`, the pEC50 entry at Cannabinoid receptor 2 [3] is “inactive”. The Activity on Cannabinoid receptor 1 [2] and on Cannabinoid receptor 2 [5] was less than 50% in each case.
For the molecule `CC(C)(O)COc1ccc(C(F)(F)F)cc1-c1cc(C(C)(C)C)nn1C[C@H]1CCCO1`, the pEC50 result at Cannabinoid receptor 2 [3] was “inactive”. The Activity at Cannabinoid receptor 1 [2] and at Cannabinoid receptor 2 [5] was less than 50% throughout.
Take `CC(C)(O)COc1ccc(C(F)(F)F)cc1CCc1cc(C(C)(C)C)nn1C[C@H]1CCCO1`: the pEC50 entry at Cannabinoid receptor 2 [3] is “inactive”. Moreover, the Activity at Cannabinoid receptor 1 [2] and at Cannabinoid receptor 2 [5] was less than 50% each time.
Consider `CC(C)(O)COc1ccc(C(F)(F)F)cc1-c1ccc(-c2cc(C(C)(C)C)nn2C[C@H]2CCCO2)o1`, for which the pEC50 entry on Cannabinoid receptor 2 [3] is “inactive”. Further, the Activity on Cannabinoid receptor 1 [2] and on Cannabinoid receptor 2 [5] was less than 50% throughout.
As to `CC(C)(O)COc1ccc(C(F)(F)F)cc1C(=O)Oc1cc(C(C)(C)C)nn1C[C@H]1CCCO1`, the EC50 on Cannabinoid receptor 2 [3] (read-out: EC50) turned out to be 1280 nM. Moreover, at Cannabinoid receptor 2 [4], the Emax worked out at 106%. Further, the Activity on Cannabinoid receptor 1 [2] is less than 50%.
On to `CC(C)(O)COc1ccc(C(F)(F)F)cc1NC(=O)c1cc(C(C)(C)C)nn1C[C@H]1CCCO1`, for which the values for the EC50 at Cannabinoid receptor 2 [3] (read-out: EC50) and on Cannabinoid receptor 2 [3] (read-out: pEC50 (converted)) were 6760 nM and 5250 nM, respectively. In addition, at Cannabinoid receptor 2 [4], the Emax amounted to 106%. At Cannabinoid receptor 1 [2], the Activity is less than 50%.
`CC(C)(O)COc1ccc(C(F)(F)F)cc1-c1cn(-c2cc(C(C)(C)C)nn2C[C@H]2CCCO2)nn1`: the pEC50 result at Cannabinoid receptor 2 [3] is “inactive”. For the same molecule, the Activity on Cannabinoid receptor 1 [2] and at Cannabinoid receptor 2 [5] was less than 50% throughout.
As usually defined, the Ki is a dissociation constant, usually derived from enzyme kinetics or from competition with a known ligand. A low value points to a stronger hold on the target. On to `CC(C)(O)COc1ccc(C(F)(F)F)cc1C(=O)Nc1cc(C(C)(C)C)nn1C[C@H]1CCCO1`, for which the inhibition constant Ki at Cannabinoid receptor 1 [6] and at Cannabinoid receptor 2 [7] was more than 10000 nM in each case.
For `CC(C)(O)COc1ccc(C(F)(F)F)cc1-c1ccc2c(C(C)(C)C)nn(C[C@H]3CCCO3)c2c1`, the EC50 at Cannabinoid receptor 2 [3] (read-out: EC50) worked out at 673 nM. Further, the Emax on Cannabinoid receptor 2 [4] worked out at 104%. For the same molecule, the Activity on Cannabinoid receptor 1 [2] is listed as less than 50%.
Turning to `Cn1c(C(C)(C)C)c/c(=N\C(=O)c2cc(C(F)(F)F)ccc2OCC(C)(C)O)n1C[C@H]1CCCO1`, the EC50 was more than 10000 nM at Cannabinoid receptor 1 [8] and 19 nM at Cannabinoid receptor 2 [9]. For the same molecule, the Ki at Cannabinoid receptor 1 [6] was more than 10000 nM; on Cannabinoid receptor 2 [7], 5.9 nM.
As to `CC(C)(O)COc1ccc(C(F)(F)F)cc1CNc1cc(C(C)(C)C)nn1C[C@H]1CCCO1`, the pEC50 entry on Cannabinoid receptor 2 [3] is “inactive”. Moreover, the Activity at Cannabinoid receptor 1 [2] and at Cannabinoid receptor 2 [5] was less than 50% in each case.
In the case of `CC(C)(O)COc1ccc(C(F)(F)F)cc1NC(=O)Nc1cc(C(C)(C)C)nn1C[C@H]1CCCO1`, the Activity on Cannabinoid receptor 2 [1] is 54%; at Cannabinoid receptor 1 [2], less than 50%.
Turning to `CC(C)(O)COc1ccc(C(F)(F)F)cc1S(=O)(=O)Nc1cc(C(C)(C)C)nn1C[C@H]1CCCO1`, at Cannabinoid receptor 2 [3], the pEC50 result is “inactive”. For the same molecule, the Activity at Cannabinoid receptor 1 [2] and at Cannabinoid receptor 2 [5] was less than 50% throughout.
Regarding `CC(C)(O)COc1ccc(C(F)(F)F)cc1-c1nnc2c(C(C)(C)C)nn(C[C@H]3CCCO3)c2n1`, on Cannabinoid receptor 2 [3] (read-out: EC50), the EC50 stood at 19 nM. For the same molecule, at Cannabinoid receptor 2 [4], the Emax was 115%. The values for the Ki at Cannabinoid receptor 1 [6] and at Cannabinoid receptor 2 [7] were more than 10000 nM and 17 nM, respectively. For the same molecule, the Activity on Cannabinoid receptor 1 [2] is less than 50%.
